# Assay results from US20040077580A1, “Antisense modulation of PI3K P85 Expression” (priority 2000, published 2004).
# Strand notation (5' to 3'): a small letter for the sugar, then the base; units joined by * are phosphorothioate-linked, units joined directly phosphodiester-linked; [ ] holds rarer units or linkages, { } end groups; capitals alone tell only the bases. e = 2'-O-(2-methoxyethyl) (MOE); [5mC] = 5-methylcytosine; d = 2'-deoxy (DNA)
# Tested on: mouse PI3K p85
# Assay: Inhibition of mouse PI3K p85 mRNA levels by antisense oligonucleotides, real-time quantitative RT-PCR
# Type: cell-based
# Design: concentration or dose not given beside the values
# Conditions: chimeric phosphorothioate 2′-MOE gapmers, averaged from two experiments
# Protocol: Cells were harvested 16 hours after oligonucleotide treatment.
# Target sites are indicated by nucleotide numbers, as given in the sequence source reference (Genbank accession no. U50413; SEQ ID NO: 48), to which the oligonucleotide binds.
# Cytidine residues are 5-methylcytidines throughout the oligonucleotides.
# Data were obtained by real-time quantitative RT-PCR as described in other examples herein and are averaged from two experiments. […] If present, “N.D.” indicates “no data”.
row,Substance,% Inhib. of mouse PI3K p85 mRNA levels
1,131410 (antisense e[5mC]*e[5mC]*eT*eG*eG*d[5mC]*d[5mC]*dA*dT*d[5mC]*dA*d[5mC]*dT*dG*dA*eA*eT*e[5mC]*e[5mC]*eA) [compound 131410],95%
2,131411 (antisense e[5mC]*e[5mC]*eA*eG*eT*dG*dG*dT*dT*dT*d[5mC]*dA*dT*dT*dG*eT*eA*eG*e[5mC]*e[5mC]) [compound 131411],90%
3,131412 (antisense e[5mC]*eT*eT*eG*e[5mC]*dT*dG*d[5mC]*dT*d[5mC]*d[5mC]*dG*dT*dG*dT*e[5mC]*eA*eG*e[5mC]*eT) [compound 131412],85%
4,131413 (antisense eT*e[5mC]*eT*e[5mC]*e[5mC]*dA*dA*dG*dT*d[5mC]*d[5mC]*dA*d[5mC]*dT*dG*eA*e[5mC]*eG*e[5mC]*eG) [compound 131413],56%
5,131414 (antisense eT*e[5mC]*eG*eG*e[5mC]*dG*dA*dG*dA*dT*dA*dG*d[5mC]*dG*dT*eT*eT*eG*eA*eA) [compound 131414],73%
6,131415 (antisense eA*eT*eA*e[5mC]*eT*dG*dA*dA*dG*d[5mC]*dG*dT*dA*dA*dG*e[5mC]*e[5mC]*eA*eA*e[5mC]) [compound 131415],75%
7,131416 (antisense eT*eG*e[5mC]*eT*eG*dG*dT*dG*d[5mC]*dT*dG*dG*d[5mC]*dT*dG*eT*e[5mC]*eT*e[5mC]*eT) [compound 131416],68%
8,131417 (antisense eG*eG*eT*eG*eT*dA*dA*dG*dA*dG*dT*dG*dT*dA*dA*eT*e[5mC]*eG*e[5mC]*e[5mC]) [compound 131417],78%
9,131418 (antisense e[5mC]*e[5mC]*eT*eG*e[5mC]*dT*dG*dG*dT*dA*dT*dT*dT*dG*dG*eA*e[5mC]*eA*e[5mC]*eT) [compound 131418],50%
10,131419 (antisense eG*e[5mC]*eT*e[5mC]*e[5mC]*dT*dG*dG*dG*dT*dT*dT*dG*dG*d[5mC]*eA*eT*eT*eG*eT) [compound 131419],45%
11,131420 (antisense e[5mC]*eG*eA*eT*e[5mC]*dT*d[5mC]*dT*d[5mC]*dG*dG*dT*dA*d[5mC]*dT*e[5mC]*eA*eG*e[5mC]*eT) [compound 131420],79%
12,131421 (antisense eG*e[5mC]*eT*e[5mC]*e[5mC]*d[5mC]*dG*dA*d[5mC]*dA*dT*dT*d[5mC]*d[5mC]*dA*e[5mC]*eG*eT*e[5mC]*eT) [compound 131421],65%
13,131422 (antisense e[5mC]*e[5mC]*eA*eT*eA*dG*d[5mC]*d[5mC]*dG*dG*dT*dG*dG*d[5mC]*dA*eG*eT*e[5mC]*eT*eT) [compound 131422],40%
14,131423 (antisense eT*eT*eT*eG*e[5mC]*dT*dT*d[5mC]*dT*d[5mC]*dA*dG*dA*dG*dG*e[5mC]*e[5mC]*eT*eT*eG) [compound 131423],40%
15,131426 (antisense eG*e[5mC]*eA*eT*e[5mC]*dA*dA*dT*dG*dT*dT*d[5mC]*dT*d[5mC]*dT*e[5mC]*eA*eA*eA*eG) [compound 131426],75%
16,atactgaagcgtaagccaac (eA*eT*eA*e[5mC]*eT*dG*dA*dA*dG*d[5mC]*dG*dT*dA*dA*dG*e[5mC]*e[5mC]*eA*eA*e[5mC]; antisense) [ISIS 131415],at least 60%
17,ccagtggtttcattgtagcc (e[5mC]*e[5mC]*eA*eG*eT*dG*dG*dT*dT*dT*d[5mC]*dA*dT*dT*dG*eT*eA*eG*e[5mC]*e[5mC]; antisense) [ISIS 131411],at least 60%
18,ccatctgtcctccatcaacg (e[5mC]*e[5mC]*eA*eT*e[5mC]*dT*dG*dT*d[5mC]*d[5mC]*dT*d[5mC]*d[5mC]*dA*dT*e[5mC]*eA*eA*e[5mC]*eG; antisense) [ISIS 131408],at least 60%
19,cgatctctcggtactcagct (e[5mC]*eG*eA*eT*e[5mC]*dT*d[5mC]*dT*d[5mC]*dG*dG*dT*dA*d[5mC]*dT*e[5mC]*eA*eG*e[5mC]*eT; antisense) [ISIS 131420],at least 60%
20,cgctccactctcagcttcac (e[5mC]*eG*e[5mC]*eT*e[5mC]*d[5mC]*dA*d[5mC]*dT*d[5mC]*dT*d[5mC]*dA*dG*d[5mC]*eT*eT*e[5mC]*eA*e[5mC]; antisense) [ISIS 131407],at least 60%
21,cttgctgctccgtgtcagct (e[5mC]*eT*eT*eG*e[5mC]*dT*dG*d[5mC]*dT*d[5mC]*d[5mC]*dG*dT*dG*dT*e[5mC]*eA*eG*e[5mC]*eT; antisense) [ISIS 131412],at least 60%
22,gcactcatgtctgcagctct (eG*e[5mC]*eA*e[5mC]*eT*d[5mC]*dA*dT*dG*dT*d[5mC]*dT*dG*d[5mC]*dA*eG*e[5mC]*eT*e[5mC]*eT; antisense) [ISIS 131409],at least 60%
23,gcatcaatgttctctcaaag (eG*e[5mC]*eA*eT*e[5mC]*dA*dA*dT*dG*dT*dT*d[5mC]*dT*d[5mC]*dT*e[5mC]*eA*eA*eA*eG; antisense) [ISIS 131426],at least 60%
24,gctcccgacattccacgtct (eG*e[5mC]*eT*e[5mC]*e[5mC]*d[5mC]*dG*dA*d[5mC]*dA*dT*dT*d[5mC]*d[5mC]*dA*e[5mC]*eG*eT*e[5mC]*eT; antisense) [ISIS 131421],at least 60%
25,ggtgtaagagtgtaatcgcc (eG*eG*eT*eG*eT*dA*dA*dG*dA*dG*dT*dG*dT*dA*dA*eT*e[5mC]*eG*e[5mC]*e[5mC]; antisense) [ISIS 131417],at least 60%
26,tcggcgagatagcgtttgaa (eT*e[5mC]*eG*eG*e[5mC]*dG*dA*dG*dA*dT*dA*dG*d[5mC]*dG*dT*eT*eT*eG*eA*eA; antisense) [ISIS 131414],at least 60%
27,tgctggtgctggctgtctct (eT*eG*e[5mC]*eT*eG*dG*dT*dG*d[5mC]*dT*dG*dG*d[5mC]*dT*dG*eT*e[5mC]*eT*e[5mC]*eT; antisense) [ISIS 131416],at least 60%
